Measured values as given in ChEMBL document CHEMBL1649156, “Antianaerobic activity of sulopenem compared to six other agents” (2009).

Key:
Type in all cases: functional
[1] = tested on: Hoylesella oralis; test: Antimicrobial activity in Prevotella oralis group by CLSI agar dilution method
[2] = tested on: Prevotella veroralis; test: Antimicrobial activity in Prevotella veroralis by CLSI agar dilution method
[3] = tested on: Prevotella bergensis; test: Antimicrobial activity in Prevotella bergensis by CLSI agar dilution method; conditions: Hallella bergensis
[4] = tested on: Prevotella salivae; test: Antimicrobial activity in Prevotella salivae by CLSI agar dilution method; conditions: Segatella salivae
[5] = tested on: Hoylesella loescheii; test: Antimicrobial activity in Prevotella loescheii by CLSI agar dilution method
[6] = tested on: Prevotella sp.; test: Antimicrobial activity in Prevotella sp.by CLSI agar dilution method
[7] = tested on: Fusobacterium nucleatum; test: Antimicrobial activity in Fusobacterium nucleatum by CLSI agar dilution method
[8] = tested on: Fusobacterium necrophorum; test: Antimicrobial activity in Fusobacterium necrophorum by CLSI agar dilution method
[9] = tested on: Fusobacterium mortiferum; test: Antimicrobial activity in Fusobacterium mortiferum by CLSI agar dilution method
[10] = tested on: Fusobacterium varium; test: Antimicrobial activity in Fusobacterium varium by CLSI agar dilution method
[11] = tested on: Finegoldia magna; test: Antimicrobial activity in Finegoldia magna by CLSI agar dilution method
[12] = tested on: Parvimonas micra; test: Antimicrobial activity in Micromonas micros by CLSI agar dilution method
[13] = tested on: Peptostreptococcus anaerobius; test: Antimicrobial activity in Peptostreptococcus anaerobius by CLSI agar dilution method
[14] = tested on: Peptoniphilus asaccharolyticus; test: Antimicrobial activity in Peptoniphilus asaccharolyticus by CLSI agar dilution method
[15] = tested on: Anaerococcus tetradius; test: Antimicrobial activity in Anaerococcus tetradius by CLSI agar dilution method
[16] = tested on: Anaerococcus prevotii; test: Antimicrobial activity in Anaerococcus prevotii by CLSI agar dilution method
[17] = tested on: Lactobacillus; test: Antimicrobial activity in Lactobacillus by CLSI agar dilution method
[18] = tested on: Bifidobacterium; test: Antimicrobial activity in Bifidobacterium by CLSI agar dilution method
[19] = tested on: Actinomyces; test: Antimicrobial activity in Actinomyces by CLSI agar dilution method
[20] = tested on: Eggerthella lenta; test: Antimicrobial activity in Eggerthella lenta by CLSI agar dilution method
[21] = tested on: Clostridium perfringens; test: Antimicrobial activity in Clostridium perfringens by CLSI agar dilution method
[22] = tested on: Clostridioides difficile; test: Antimicrobial activity in Clostridium difficile by CLSI agar dilution method
[23] = tested on: Clostridium sp.; test: Antimicrobial activity in Clostridium sp. by CLSI agar dilution method
[24] = tested on: Clostridium tertium; test: Antimicrobial activity in Clostridium tertium by CLSI agar dilution method
[25] = tested on: Thomasclavelia ramosa; test: Antimicrobial activity in Clostridium ramosum by CLSI agar dilution method
[26] = tested on: Clostridium cadaveris; test: Antimicrobial activity in Clostridium cadaveris by CLSI agar dilution method
[27] = tested on: Paraclostridium bifermentans; test: Antimicrobial activity in Clostridium bifermentans by CLSI agar dilution method
[28] = tested on: [Clostridium] innocuum; test: Antimicrobial activity in Clostridium innocuum by CLSI agar dilution method
[29] = tested on: Paeniclostridium sordellii; test: Antimicrobial activity in Clostridium sordellii by CLSI agar dilution method; conditions: Paraclostridium sordellii
[30] = tested on: Clostridium butyricum; test: Antimicrobial activity in Clostridium butyricum by CLSI agar dilution method
[31] = tested on: Enterocloster clostridioformis; test: Antimicrobial activity in Clostridium clostridioforme by CLSI agar dilution method
[32] = tested on: Bacteroides fragilis; test: Antimicrobial activity in Bacteroides fragilis by CLSI agar dilution method
[33] = tested on: Bacteroides thetaiotaomicron; test: Antimicrobial activity in Bacteroides thetaiotaomicron by CLSI agar dilution method
[34] = tested on: Bacteroides ovatus; test: Antimicrobial activity in Bacteroides ovatus by CLSI agar dilution method
[35] = tested on: Phocaeicola vulgatus; test: Antimicrobial activity in Bacteroides vulgatus by CLSI agar dilution method
[36] = tested on: Parabacteroides distasonis; test: Antimicrobial activity in Bacteroides distasonis by CLSI agar dilution method
[37] = tested on: Bacteroides uniformis; test: Antimicrobial activity in Bacteroides uniformis by CLSI agar dilution method
[38] = tested on: Bacteroides stercoris; test: Antimicrobial activity in Bacteroides stercoris by CLSI agar dilution method
[39] = tested on: Prevotella bivia; test: Antimicrobial activity in Prevotella bivia by CLSI agar dilution method
[40] = tested on: Prevotella buccae; test: Antimicrobial activity in Prevotella buccae by CLSI agar dilution method; conditions: Segatella buccae
[41] = tested on: Prevotella melaninogenica; test: Antimicrobial activity in Prevotella melaninogenica by CLSI agar dilution method
[42] = tested on: Prevotella denticola; test: Antimicrobial activity in Prevotella denticola by CLSI agar dilution method
[43] = tested on: Prevotella intermedia; test: Antimicrobial activity in Prevotella intermedia by CLSI agar dilution method
[44] = tested on: Prevotella nigrescens; test: Antimicrobial activity in Prevotella nigrescens by CLSI agar dilution method
[45] = tested on: Prevotella corporis; test: Antimicrobial activity in Prevotella corporis by CLSI agar dilution method
[46] = tested on: Prevotella disiens; test: Antimicrobial activity in Prevotella disiens by CLSI agar dilution method
[47] = tested on: Tissierella praeacuta; test: Antimicrobial activity in Clostridium hastiforme by CLSI agar dilution method
[48] = tested on: Porphyromonas gingivalis; test: Antimicrobial activity in Porphyromonas gingivalis by CLSI agar dilution method
[49] = tested on: Prevotella baroniae; test: Antimicrobial activity in Prevotella baroniae by CLSI agar dilution method; conditions: Segatella baroniae
[50] = tested on: Porphyromonas asaccharolytica; test: Antimicrobial activity in Porphyromonas asaccharolytica by CLSI agar dilution method
[51] = tested on: Cutibacterium acnes; test: Antimicrobial activity in Propionibacterium acnes by CLSI agar dilution method

CCC[C@@H]1C[C@@H](C(=O)N[C@@H]([C@H]2O[C@H](SC)[C@H](O)[C@@H](O)[C@H]2O)[C@H](C)Cl)N(C)C1 [CLINDAMYCIN]
8 µg/mL: MIC50 [10] | MIC [24] | MIC50 [24] | MIC50 [38]
0.25 µg/mL: MIC90 [12] | MIC90 [13] | MIC50 [20] | MIC [29]
> 1 µg/mL: MIC [37]
2 µg/mL: MIC90 [11] | MIC90 [21] | MIC [25] | MIC [30] | MIC50 [34] | MIC50 [37]
> 4 µg/mL: MIC [38]
1 µg/mL: MIC90 [15] | MIC90 [20] | MIC50 [23] | MIC50 [32] | MIC90 [35]
0.5 µg/mL: MIC50 [15] | MIC50 [17] | MIC50 [21]
0.03 µg/mL: MIC50 [8] | MIC50 [18] | MIC [19] | MIC [28] | MIC [31] | MIC50 [35]
> 32 µg/mL: MIC90 [18] | MIC90 [22] | MIC90 [32] | MIC90 [33] | MIC90 [34] | MIC90 [39]
4 µg/mL: MIC90 [17] | MIC50 [22] | MIC50 [33] | MIC50 [36]
0.06 µg/mL: MIC50 [7] | MIC50 [9] | MIC [14] | MIC [26] | MIC90 [41] | MIC90 [42] | MIC [47]
32 µg/mL: MIC90 [10]
≤ 0.016 µg/mL: MIC [1] | MIC [2] | MIC [3] | MIC [4] | MIC [5] | MIC [6] | MIC [8] | MIC [13] | MIC50 [13] | MIC50 [39] | MIC [40] | MIC50 [40] | MIC90 [40] | MIC [41] | MIC50 [41] | MIC [42] | MIC50 [42] | MIC [43] | MIC50 [43] | MIC90 [43] | MIC [44] | MIC50 [44] | MIC90 [44] | MIC50 [45] | MIC [46] | MIC50 [46] | MIC [48]
16 µg/mL: MIC90 [23] | MIC90 [36]
0.125 µg/mL: MIC90 [7] | MIC90 [9] | MIC50 [11] | MIC [12] | MIC50 [12] | MIC50 [14] | MIC [16] | MIC50 [19] | MIC [27]

C[C@@H](O)[C@H]1C(=O)N2C(C(=O)O)=C(SCCNC=N)C[C@H]12 [IMIPENEM ANHYDROUS]
4 µg/mL: MIC50 [22] | MIC90 [22]
0.25 µg/mL: MIC [24] | MIC50 [24] | MIC [25] | MIC [27] | MIC90 [32] | MIC [33] | MIC50 [33] | MIC90 [33] | MIC90 [34] | MIC [37] | MIC50 [37] | MIC [38] | MIC50 [38] | MIC90 [39]
0.06 µg/mL: MIC [3] | MIC90 [7] | MIC [11] | MIC50 [11] | MIC90 [12] | MIC [13] | MIC50 [13] | MIC90 [15] | MIC [19] | MIC [29] | MIC90 [43] | MIC90 [44] | MIC50 [46]
2 µg/mL: MIC90 [17] | MIC [47]
1 µg/mL: MIC90 [9] | MIC90 [10] | MIC90 [13] | MIC50 [17] | MIC50 [23] | MIC90 [23] | MIC [31] | MIC90 [36]
≤ 0.016 µg/mL: MIC [1] | MIC [50] | MIC [8] | MIC50 [8] | MIC [14] | MIC50 [14] | MIC [16] | MIC [43] | MIC50 [43] | MIC [44] | MIC50 [44] | MIC [45] | MIC50 [45] | MIC [48]
0.125 µg/mL: MIC90 [11] | MIC90 [18] | MIC50 [19] | MIC50 [21] | MIC90 [21] | MIC [26] | MIC [28] | MIC50 [32] | MIC [34] | MIC50 [34] | MIC90 [40] | MIC90 [41] | MIC90 [42]
0.5 µg/mL: MIC50 [9] | MIC [10] | MIC50 [10] | MIC50 [20] | MIC90 [20] | MIC [30] | MIC50 [35] | MIC90 [35] | MIC50 [36]
0.03 µg/mL: MIC [49] | MIC [2] | MIC [4] | MIC [5] | MIC [6] | MIC50 [7] | MIC [12] | MIC50 [12] | MIC50 [15] | MIC [18] | MIC50 [18] | MIC50 [51] | MIC90 [51] | MIC [39] | MIC50 [39] | MIC [40] | MIC50 [40] | MIC50 [41] | MIC50 [42] | MIC [46]

Cc1ncc([N+](=O)[O-])n1CCO [METRONIDAZOLE]
> 16 µg/mL: MIC [17] | MIC50 [17] | MIC50 [18] | MIC90 [18] | MIC [51] | MIC50 [51] | MIC90 [51] | MIC50 [19]
0.25 µg/mL: MIC [2] | MIC50 [8] | MIC50 [9] | MIC50 [10] | MIC50 [12] | MIC [27] | MIC [47]
> 1 µg/mL: MIC [19]
0.5 µg/mL: MIC [49] | MIC [3] | MIC [5] | MIC [6] | MIC90 [7] | MIC90 [9] | MIC90 [10] | MIC50 [11] | MIC90 [12] | MIC50 [13] | MIC50 [20] | MIC90 [20] | MIC50 [22] | MIC90 [22] | MIC [24] | MIC50 [35] | MIC [37] | MIC50 [37] | MIC50 [41] | MIC50 [42] | MIC50 [43] | MIC50 [44] | MIC50 [45]
16 µg/mL: MIC90 [17]
4 µg/mL: MIC90 [39]
1 µg/mL: MIC90 [11] | MIC90 [13] | MIC50 [14] | MIC50 [15] | MIC90 [15] | MIC [16] | MIC50 [21] | MIC90 [21] | MIC50 [23] | MIC90 [23] | MIC50 [24] | MIC [25] | MIC [29] | MIC50 [32] | MIC90 [32] | MIC [33] | MIC50 [33] | MIC50 [34] | MIC90 [34] | MIC90 [35] | MIC50 [36] | MIC90 [36] | MIC [38] | MIC50 [38] | MIC50 [40] | MIC90 [41] | MIC90 [42] | MIC90 [43] | MIC90 [44] | MIC [46] | MIC50 [46]
2 µg/mL: MIC90 [33] | MIC50 [39] | MIC90 [40]
≤ 0.125 µg/mL: MIC [1] | MIC [4] | MIC [50] | MIC [7] | MIC50 [7] | MIC [8] | MIC [14] | MIC [26] | MIC [28] | MIC [30] | MIC [31] | MIC [45] | MIC [48]
